Results taken from patent US7049305B2, “Bile-acid conjugates providing for sustained systemic concentration of drugs” (XenoPort, Inc., priority 2000, dated 2006).

Molecular target: T1, rPEPT1 (Rattus norvegicus, UniProt P51574)
T1 construct: expressed in transfected cells; host or cells: CHO cells
T1 sequence (P51574 1-710): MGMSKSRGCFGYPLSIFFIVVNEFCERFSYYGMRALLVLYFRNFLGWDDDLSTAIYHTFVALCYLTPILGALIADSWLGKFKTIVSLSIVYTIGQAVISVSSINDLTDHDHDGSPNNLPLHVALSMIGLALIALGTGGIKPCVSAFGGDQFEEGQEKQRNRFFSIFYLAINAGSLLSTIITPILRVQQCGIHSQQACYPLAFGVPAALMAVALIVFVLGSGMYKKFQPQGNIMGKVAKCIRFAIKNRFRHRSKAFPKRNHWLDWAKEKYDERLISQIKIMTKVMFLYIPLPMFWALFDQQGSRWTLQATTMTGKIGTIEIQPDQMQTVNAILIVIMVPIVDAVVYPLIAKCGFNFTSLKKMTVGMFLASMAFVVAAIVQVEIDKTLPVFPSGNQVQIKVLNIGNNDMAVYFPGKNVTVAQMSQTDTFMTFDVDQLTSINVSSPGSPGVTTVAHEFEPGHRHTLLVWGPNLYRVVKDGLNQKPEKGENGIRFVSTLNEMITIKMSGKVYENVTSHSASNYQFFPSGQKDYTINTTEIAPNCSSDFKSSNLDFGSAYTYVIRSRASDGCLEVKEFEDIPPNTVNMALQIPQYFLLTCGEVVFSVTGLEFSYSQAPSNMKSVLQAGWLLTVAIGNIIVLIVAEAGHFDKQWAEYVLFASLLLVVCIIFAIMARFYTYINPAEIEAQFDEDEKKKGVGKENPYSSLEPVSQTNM
Assay: Transport-induced currents in Xenopus oocytes expressing rPEPT1
Format: cell-based
Settings: response relative to Gly-Sar, test compound 1 mM
Protocol: Rat and human PEPT1 and PEPT2 expressing CHO cell lines were prepared as described in PCT Application WO01/20331. Gabapentin-containing dipeptides were evaluated for interaction with the peptide transporters using a radiolabeled substrate uptake assay in a competitive inhibition format, as described in PCT Application WO01/20331. Transport-induced currents were also measured in Xenopus oocytes transfected with rat and human PEPT1 and PEPT2.

## NCC(=O)NCC1(CC(=O)O)CCCCC1 [Gly-Gabapentin]
  % Max. (Gly-Sar): 76%
